Assay results: PubChem BioAssay AID2060896 (Molecular Pharmacology Branch, DTP, NCI, 2025)

Test system: 941728-121-R-J1-PDC complex spheroid viability
Assay: Anticancer human tumor 941728-121-R-J1-PDC patient-derived lung adenocarcinoma cell line growth inhibition [RAS]
Details: for IC50: curve of first compound; for viability, T/C: stronger effect = lower value
Excerpt: RAS pathway inhibitors in Combinations in Complex Spheroids
A high-throughput screen of multi-cell type tumor spheroids was designed to identify active combinations of RAS pathway inhibitors and targeted small molecules. Complex spheroids include a stromal component modeled by human endothelial cells (HUVEC) and fibroblasts modeled by human mesenchymal stem cells (MSCs). The concentration ranges selected for each drug and investigational agent were based upon clinically achievable concentrations if the clinical Cmax of the agent was known.
Compounds. The drugs and investigational agents: abemaciclib (NSC768073), cobimetinib (NSC768068), divarasib (GDC6063, NSC841802), docetaxel (NSC628503), GDC-1971 (RLY-1971, NSC841576), gemcitabine (NSC613327), inavolisib (NSC800729), ipatasertib (NSC767898), KB-0742 (NSC834161), MRTX-1133 (NSC836407), osimertinib (NSC779217), RMC-4630 (NSC839698), RMC-6236 (NSC851965), RMC-6291 (NSC852671), Ro-3306 (NSC812927), sapanisertib (NSC764658), SN-38 (NSC673596), staurosporine (NSC755774), SY5609 (NSC837396), and tovorafenib (DAY101, NSC766906), were obtained from the National Cancer Institute (NCI) Developmental Therapeutics Program Chemical Repository. The FDA-approved anticancer drug set is available from the NCI Developmental Therapeutics Program. […] The stock solutions were prepared in dimethyl sulfoxide (DMSO, Sigma-Aldrich, St. Louis, MO, cat. D2650) at 800-fold the tested concentration and stored at -70 degrees C prior to their use. All drugs and investigational agents were tested over a range starting from a high concentration at or near the clinical Cmax and decreasing in half-log increments. If the clinical Cmax for an agent had not been determined, the highest concentration tested was 10 microM.
Cell Culture. All cells were maintained in an incubator at 37 degrees C and 5% CO2 with 95% humidity. The PDC lines were cultured according to standard operating procedures established by the NCI PDMR. All PDCs were thawed and cultured in Matrigel-coated flasks prepared with a working solution of 1X Ham's F-12 nutrient mix, without supplementation (Invitrogen, Waltham, MA, cat. 11765054), 100 U/mL penicillin-streptomycin (Invitrogen, cat. 15140122), and 2.5% Matrigel (Corning Inc., Corning, NY, cat. 354248) for the first three passages. The 362531-283-R-J2-PDC and 782815-120-R-J1-PDC lines were cultured in 6C/Colon 1B media, which includes advanced DMEM/F-12 (Thermo Fisher Scientific, cat. 12634028), 10 mM HEPES (Thermo Fisher Scientific, cat. 15630080), 1X GlutaMAX supplement (Thermo Fisher Scientific, cat. 35050061), 0.1 mg/mL primocin (InvivoGen, San Diego, CA, cat. ant-pm-2), 10% defined fetal bovine serum, heat inactivated (HyClone Laboratories Inc., Logan, UT, cat. SH30070.03HI), 50% L-WRN conditioned media (ATCC, cat. CRL-3276), 1.25 mM N-Acetyl-L-cysteine (Sigma-Aldrich, cat. A9165), 10 mM nicotinamide (Sigma-Aldrich, cat. N0636), 1X B-27 supplement (Thermo Fisher Scientific, cat. 17504044), 1X N-2 supplement (Thermo Fisher Scientific, cat. 17502048), 50 ng/mL human EGF (Thermo Fisher Scientific, cat. PHG0311), and 10 microM Y-27632 dihydrochloride (Tocris Bioscience, cat. 1254). The K12877-001-R-J1-PDC line was cultured in 6I media, which includes all 6C/Colon 1B media plus 10 ng/mL human FGF-10 (PeproTech, cat. 100-26), 1 ng/mL human FGF-2 (PeproTech, cat. 100-18B), 1 µM prostaglandin E2 (Tocris Bioscience, cat. 2296), […] hydrocortisone (Sigma-Aldrich, cat. H4001), and […] bovine insulin (Sigma-Aldrich, cat. I6634). The K86415-001-R-J1-PDC line was cultured in 6D media, which includes all 6C/Colon 1B media components minus the L-WRN conditioned media. The 485176-168-R4-J1-PDC was cultured in PANC media, which includes all 6C/Colon 1B media plus 100 ng/mL human FGF-10 (PeproTech, cat. 100-26), 500 nM SB-431542 (Selleckchem, cat. S1067), and 10 nM gastrin (Tocris Bioscience, cat. 3006). […]
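Note: spheroids exposed to compounds for 7 days before readout.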
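Throughout, for viability, T/C: 100% = DMSO vehicle control viability.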

- IC50 (second compound 0.000949 µM): < 3.16 nM
- IC50 (second compound 0.003 µM): 382 nM
- IC50 (second compound 0.00949 µM): < 3.16 nM
- IC50 (second compound 0.03 µM): < 3.16 nM
- IC50 (second compound 0.0949 µM): < 3.16 nM
- IC50 (second compound 0.3 µM): < 3.16 nM
Structure (SMILES): C=CC(=O)Nc1cc(Nc2nccc(-c3cn(C)c4ccccc34)n2)c(OC)cc1N(C)CCN(C)C + CCn1c(-c2cccnc2C(C)OC)c2c3cc(ccc31)N1CCOC(CC(NC(=O)C(C(C)C)N(C)C(=O)C3(F)CCN(C(=O)C#CC(C)(C)N(C)C)CC3)C(=O)N3CCCC(N3)C(=O)OCC(C)(C)C2)C1
- viability, T/C (second compound 0.000949 µM, first compound 0.00316 µM): 24.4%
- viability, T/C (second compound 0.000949 µM, first compound 0.01 µM): 22.9%
- viability, T/C (second compound 0.000949 µM, first compound 0.0316 µM): 16.2%
- viability, T/C (second compound 0.000949 µM, first compound 0.1 µM): 20.1%
- viability, T/C (second compound 0.000949 µM, first compound 0.316 µM): 19.2%
- viability, T/C (second compound 0.000949 µM, first compound 1 µM): 12.8%
- viability, T/C (second compound 0.003 µM, first compound 0.00316 µM): 89.7%
- viability, T/C (second compound 0.003 µM, first compound 0.01 µM): 91.4%
- viability, T/C (second compound 0.003 µM, first compound 0.0316 µM): 69.4%
- viability, T/C (second compound 0.003 µM, first compound 0.1 µM): 69.9%
- viability, T/C (second compound 0.003 µM, first compound 0.316 µM): 53.1%
- viability, T/C (second compound 0.003 µM, first compound 1 µM): 35.4%
- viability, T/C (second compound 0.00949 µM, first compound 0.00316 µM): 22.7%
- viability, T/C (second compound 0.00949 µM, first compound 0.01 µM): 18.3%
- viability, T/C (second compound 0.00949 µM, first compound 0.0316 µM): 20.5%
- viability, T/C (second compound 0.00949 µM, first compound 0.1 µM): 19.2%
- viability, T/C (second compound 0.00949 µM, first compound 0.316 µM): 16.1%
- viability, T/C (second compound 0.00949 µM, first compound 1 µM): 12.8%
- viability, T/C (second compound 0.03 µM, first compound 0.00316 µM): 25.8%
- viability, T/C (second compound 0.03 µM, first compound 0.01 µM): 20.8%
- viability, T/C (second compound 0.03 µM, first compound 0.0316 µM): 16.8%
- viability, T/C (second compound 0.03 µM, first compound 0.1 µM): 16.9%
- viability, T/C (second compound 0.03 µM, first compound 0.316 µM): 14.2%
- viability, T/C (second compound 0.03 µM, first compound 1 µM): 15.5%
- viability, T/C (second compound 0.0949 µM, first compound 0.00316 µM): 22%
- viability, T/C (second compound 0.0949 µM, first compound 0.01 µM): 22.4%
- viability, T/C (second compound 0.0949 µM, first compound 0.0316 µM): 20.7%
- viability, T/C (second compound 0.0949 µM, first compound 0.1 µM): 16.6%
- viability, T/C (second compound 0.0949 µM, first compound 0.316 µM): 15.9%
- viability, T/C (second compound 0.0949 µM, first compound 1 µM): 17.2%
- viability, T/C (second compound 0.3 µM, first compound 0.00316 µM): 22.5%
- viability, T/C (second compound 0.3 µM, first compound 0.01 µM): 21.6%
- viability, T/C (second compound 0.3 µM, first compound 0.0316 µM): 21.3%
- viability, T/C (second compound 0.3 µM, first compound 0.1 µM): 20.1%
- viability, T/C (second compound 0.3 µM, first compound 0.316 µM): 21.7%
- viability, T/C (second compound 0.3 µM, first compound 1 µM): 21.4%
